# ChEMBL document CHEMBL5316350, “Novel Pyrido[2',1':2,3]imidazo[4,5-c]quinoline Derivative Selectively Poisons Leishmania donovani Bisubunit Topoisomerase 1 to Inhibit the Antimony-Resistant Leishmania Infection in Vivo” (J Med Chem, 2023)
# The source made the active and inactive calls. The rule behind the calls is not given here.
# Experiments:
# [1] = Toxicity in BALB/c mouse infected with Leishmania donovani Ag83 promastigotes assessed as change in body weight treated after 3 weeks of infection at 5 to 10 mg/kg, ip twice a week for 3 weeks; assay type: organism-based; conditions: in vivo, dose 5-10 mg/kg
# Leishmania donovani [2] = experiment: Induction of apoptosis in Leishmania donovani Ag83 promastigotes assessed as viable cells measured at 5 uM after 12 hrs by Annexin V-FITC/PI staining based flow cytometric analysis (reference value: 99.4%); assay type: functional
# Leishmania donovani [3] = experiment: Antileishmanial activity against Leishmania donovani Ag83 promastigotes infected in BALB/c mouse model of visceral leishmaniasis assessed as fold change in T-helper type 1 immunological evoke response in splenocytes by measuring increased IFN-gamma cytokine level treated after 3 weeks of infection at 10 mg/kg, ip twice a week for 3 weeks by RT-PCR analysis; assay type: functional
# Leishmania donovani [4] = experiment: Induction of apoptosis in Leishmania donovani BHU575 assessed as DNA break accumulation measured at 5 uM after 6 to 24 hrs by TUNEL staining based assay; assay type: functional, organism-based; conditions: time 6-24 hrs
# Leishmania donovani [5] = experiment: Induction of cell cycle arrest in antimony resistant Leishmania donovani BHU575 promastigotes assessed as decrease in accumulation of cells in G0/G1 phase at 5 uM measured after 12 hrs by PI staining based flow cytometry (reference value: 80.7%); assay type: functional; set-up: scale not given: the % may be the effect or the level left
structure (smiles),measurement,setting,value
COc1cc(-c2nc3ccccc3c3nc4ccccn4c23)cc(OC)c1OC,Activity,[1],Non-Toxic
same,Activity,Leishmania donovani [2],2%
same,fold change (FC),Leishmania donovani [3],5.5
same,Activity,Leishmania donovani [4],Active
same,Activity,Leishmania donovani [5],46%
